Legend:
[1] = Structural integrity of released Avastin (far-UV and fluorescence emission scans); type: physicochemical; details: after release from the nanogels, versus native and denatured controls
Method: Nanogels containing 0, 2 or 5 mol % acrylic acid (AA) loaded with 12.5 or 37.5 wt % Avastin were dispersed in 1 mL PBS (pH 7.4) inside a release device (Float-A-Lyzer® G2, Spectrum Laboratories Inc.) with MWCO 300 kDa at 20 mg/mL. The release device was immersed in 20 mL PBS (pH 7.4) in a 50 mL conical centrifuge tube, and the release was carried out in an incubator shaker at 70 rpm and 37° C. for 100 days. At selected times, the release device was transferred to a new PBS (pH 7.4) release media maintained at 37° C. The amount of Avastin released at each time point was measured using a BCA total protein assay kit (n=4). The fluorescence spectra of released Avastin at late time points were compared to native Avastin® to evaluate the structural integrity of the therapeutic antibody during release.

[2] = system: VEGF expression of hfRPE cells; test: VEGF ELISA on hfRPE cells with and without UV treatment; type: cell-based, human; details: Avastin 0.25 mg/mL, nanogels 2 mg/mL, 24 hours
Method: To test the ability of Avastin®-loaded nanogels to affect VEGF expression, HfRPE cells were seeded in 96-well plates at a density of 100,000 cells/cm^2. After one day incubation, cell media for all groups was changed to PBS (pH 7.4). Half of all cells were exposed to UV light (1 J/cm) for one hour, and the other half were placed back into the cell incubator. After the 1-hour exposure, PBS (pH 7.4) for all wells were replaced with serum free media (DMEM+pen/strep), then Avastin® at concentration 0.25 mg/mL, and nanogels containing 2 mol % AA with and without 12.5 wt % Avastin® were added into the wells at a concentration of 2 mg/mL. Cells with and without UV treatment were used as controls.
After 24 hours, a VEGF ELISA assay was conducted on all experimental groups.

## Bevacizumab [Avastin]
[1]
  secondary and tertiary protein structures: intact
[2]; UV-treated cells
  VEGF expression of hfRPE: reduces the VEGF expression to the level of the cells without UV treatment
[2]; cells without UV treatment
  VEGF expression of hfRPE: do not change VEGF expression

Reference: patent publication US20250255808A1, “NANOGEL PLATFORM TECHNOLOGY FOR LONG-TERM BIOLOGICS THERAPY” (UNIVERSITY OF MARYLAND, BALTIMORE, priority 2022, published 2025)
